Data taken from patent US7763626B2, “Compositions and method for enhancing the therapeutic activity of opiods in treatment of pain” (Trustees of Dartmouth College, priority 2004, dated 2010).

Legend:
Male Sprague-Dawley rats [1] = assay: L5 spinal nerve transection model, mechanical allodynia; type: in vivo, rat
Protocol: Experiments were performed to determine how propentofylline-induced suppression of glial activation contribute to reduced behavioral hypersensitivity after nerve injury. In a preventative paradigm, 10 μg of propentofylline (Sigma) to male Sprague-Dawley rats in 40 μl of sterile saline, or saline vehicle alone was administered intrathecally (i.t.) by lumbar puncture at the L4/5 level under brief halothane anesthesia (n=6-8/group). Treatment began one hour prior to L5 spinal nerve transection and continued daily in the evening until day 4 or 12 post-transection. Rats received either an L5 spinal nerve transection or sham surgery on day 0. The development of mechanical allodynia was monitored as described above in the morning at approximately 15 hours post-propentofylline or saline injection. […]
Mechanical sensitivity was measured as the frequency of foot withdrawals elicited by a defined mechanical stimulus. […]
In blinded testing, rats were subjected to sequential series of 10 tactile stimulations to the dorsal surface of the ipsilateral hindpaw using […] von Frey filaments (Stoelting Co., WoodDale, Ill.) sequentially. The number of foot withdrawals to this normally non-noxious stimulus determined mechanical allodynia. Mechanical sensitivity was assessed by recording the total number of responses elicited during three successive trials separated by at least 10 minutes. […]

Male Sprague-Dawley rats [2] = assay: Paw pressure test (Analgesy-Meter), morphine withdrawal-induced mechanical hyperalgesia; type: in vivo, rat
Protocol: Male Sprague-Dawley rats (175-200 grams, Harlan, Indianapolis, Ind.) were divided into two groups (n=8 per group). Rats received subcutaneous injections of either saline or morphine (10 mg/kg; Sigma, St. Louis, Mo.) twice daily at 0800 to 0900 and 1600-1700 hour for 5 days in order to induce opioid tolerance. Chronic morphine withdrawal-induced hyperalgesia and allodynia were assessed in the animals 16 hours after the last injection of morphine. Following the recording of morphine withdrawal-induced hyperalgesia and allodynia, animals were treated with morphine (5 microgram) acutely via lumbar intrathecal injection to study the expression of morphine tolerance. Acute analgesic activity or intrathecal morphine in morphine-tolerant and chronic aline-treated rats were evaluated by mechanical (Analgesy-Meter) and thermal (tail-flick) test paradigms. Behaviors recorded prior to the acute administration of intrathecal morphine served as the basal latency measures.
With an understanding of the effects of morphine alone, separate groups of rats (n=8) received with saline or morphine (10 mg/kg subcutaneously, twice daily for 5 days) and also received once daily injections (at 1100 to 1200 hour) of propentofylline (1 and 10 micrograms) or saline via direct lumbar puncture during the induction of morphine tolerance. Again, chronic morphine withdrawal-induced hyperalgesia and allodynia were assessed in the animals 16 hours after the last subcutaneous morphine injection. Following the recording of morphine withdrawal-induced hyperalgesia and allodynia, animals were treated with morphine (5 micrograms) acutely via lumbar puncture to study the expression of morphine tolerance. As before, the acute analgesic activity of intrathecal morphine in morphine-tolerant and saline-injected rats was evaluated by mechanical (Analgesy-Meter) and thermal (tail-flick) test paradigms. Behavior recorded prior to the acute administration of intrathecal morphine served as the basal latency.
In blinded testing, rats were subjected to sequential series of 10 tactile stimulations to the dorsal surface of the ipsilateral hindpaw using […] von Frey filaments (Stoelting Co., WoodDale, Ill.) sequentially. The number of foot withdrawals to this normally non-noxious stimulus determined mechanical allodynia. Mechanical sensitivity was assessed by recording the total number of responses elicited during three successive trials separated by at least 10 minutes. The pressure required to elicit paw withdrawal, the paw pressure threshold was determined.

TNF-α mRNA = assay: RNase protection assay, cytokine mRNA at L5 lumbar spinal cord; conditions: propentofylline 10 micrograms intrathecally for 5 days during induction of morphine tolerance
Protocol: After behavioral testing for reactions to the combined treatment, rats were sacrificed and decapitated. An 18-gauge needle was inserted into the caudal end of the vertebral column and the spinal cord was expelled with ice-cold phosphate-buffered saline. The spinal cord was frozen immediately on dry ice and stored at −80° C. until homogenization. The L5 lumbar spinal cord was isolated from the intact frozen cord at the time of mRNA and protein quantification. Total RNA was isolated from the L5 spinal cord by the TRIzol extraction method (Invitrogen Corporation, Carlsbad, Calif).
Assessment of the temporal cytokine mRNA expression in the L5 lumber spinal cord was performed using a Ribonuclease Protection Assay technique. A Multiprobe RPAse kit was used (Pharmingen, San Diego, Calif.). […] Quantitative image analysis was employed to compare mRNA levels based on band intensities for each cytokine. The intensity of each band was measured using image analysis software and assigned an arbitrary unit based on the measured intensity levels. The value for the normalized quantity for each band was obtained by dividing by the L32 house-keeping gene control. Individual mRNA concentration was calculated as the ratio of the expression compared with saline-treated animals in which normal values were weighted as 1.

GFAP mRNA = assay: Real-time PCR of GFAP mRNA at L5 lumbar spinal cord; type: in vivo, rat
Protocol: (§1) Total RNA was treated with DNase I (Ambion, Austin, Tex.) to remove DNA contamination before cDNA synthesis. The reverse transcription (RT) was carried out in a 100 μl total reaction volume containing RT buffer, dNTPs, multiscribe reverse transcriptase, RNase-free water and 10 μg of DNase-treated total RNA. The RT reaction was carried out at 25° C. for 10 minutes, 37° C. for 120 minutes, and 95° C. for 5 minutes. Real-time PCR analysis was performed using gene-specific primers and probes that were designed and blasted against GENBANK to confirm their species and gene specificity. […] The real-time PCR reactions were carried out using Platinum Taq DNA polymerase, 20 mM Tris HCl (pH 8.4), 50 mM KCl, 3 mM MgCl2, 200 μM dGTP, dCTP, and dATP, 400 μM of dUTP and 1 U uracyl DNA glycosylase (UDG), 900 nM forward and reverse primers, 300 nM TaqMan probe, and 10-fold dilution of cDNA (50 ng) from the RT step. Primers and probes for glyceraldehyde-3-phosphate (GADPH), GFAP and Mac-1 were obtained form Applied Biosystems (LaJolla, Calif.). The relative standard curves generated by plotting the threshold value versus the log of the amount of total cDNA added to the reaction (1-10000 pg) were used to compare the relative amount of target genes from control and chronic morphine-treated animals.

TNF-α protein = assay: Cytokine protein estimation by ELISA at L5 spinal cord; type: in vivo, rat; conditions: propentofylline 10 micrograms intrathecally for 5 days during induction of morphine tolerance
Protocol: (§2) Quantitative determination of IL-1β, TNF-α and IL-6 protein was performed on the L5 spinal cord of the rats. […] Briefly, weighed sections of L5 spinal cord were homogenized in a homogenization buffer consisting of a protease inhibitor using the a Power Gen 125 tissue tearer (Fisher Scientific, Suwanee, Ga.). Samples were spun at 20,000×g for 30 minutes at 4° C. Supernatant was aliquoted and stored at −80° C. for future protein quantification. IL-1β and TNF-α (R&D Systems, Minneapolis, Minn.) and IL-6 (Biosource, Camarillo, Calif.) protein concentrations were determined utilizing the quantitative sandwich enzyme immunoassay.

IL-1β protein = assay: as above; type: in vivo, rat; conditions: propentofylline 10 micrograms intrathecally for 5 days during induction of morphine tolerance
Protocol: as §2

IL-6 protein = assay: as above; type: in vivo, rat; conditions: propentofylline 10 micrograms intrathecally for 5 days during induction of morphine tolerance
Protocol: as §2

Mac-1 mRNA = assay: Real-time PCR of Mac-1 mRNA at L5 lumbar spinal cord; type: in vivo, rat
Protocol: as §1

[3] = compared to saline-treated controls, morphine 10 mg/kg twice daily 5 days, or propentofylline 10 micrograms intrathecally 5 days in saline-treated rats
[4] = propentofylline during the induction phase of morphine tolerance

## CCCn1cnc2c1c(=O)n(CCCCC(C)=O)c(=O)n2C [propentofylline]
Male Sprague-Dawley rats [1]; 10 μg i.t. daily from one hour prior to transection, 12 g Von Frey filament, all time points, vs L5 saline rats
  development of mechanical allodynia after L5 spinal nerve transection: robustly inhibited
Male Sprague-Dawley rats [1]; 10 μg i.t. daily, day 5, 7, 9 and 12
  mechanical allodynia after L5 spinal nerve transection compared with normal group: no longer discernable from the normal group
Male Sprague-Dawley rats [2]; 16 hours after last injection, morphine 10 mg/kg s.c. twice daily 5 days and/or propentofylline 10 micrograms intrathecally once daily 5 days
  Paw pressure latency: 119.4 ± 5.4 grams
Male Sprague-Dawley rats [2]; 16 hours after last morphine injection (10 mg/kg s.c. twice daily 5 days), propentofylline 1 and 10 micrograms intrathecally for 5 days during induction of tolerance
  morphine withdrawal-induced mechanical hyperalgesia: significantly attenuated
TNF-α mRNA
  morphine-induced mRNA upregulation for TNF-α: significantly attenuated
GFAP mRNA; [3]
  GFAP mRNA levels at the L5 lumbar spinal cord: no effect
GFAP mRNA; [4]
  chronic morphine-induced upregulation of GFAP: significantly attenuated
TNF-α protein
  morphine-induced TNF-α protein levels: significantly attenuated
IL-1β protein
  morphine-induced IL-1β protein levels: significantly attenuated
IL-6 protein
  morphine-induced IL-6 protein levels: significantly attenuated
Mac-1 mRNA; [3]
  Mac-1 mRNA levels at the L5 lumbar spinal cord: no effect
Mac-1 mRNA; [4]
  chronic morphine-induced upregulation of Mac-1: significantly attenuated
